The results in this text go back to BindingDB's records for PubMed 8627566 (Hoechst Marion Roussel, 1996).

In assay [1] the target is T1, Substance-K receptor (Mesocricetus auratus, UniProt P51144).
T1 sequence (P51144 whole entry): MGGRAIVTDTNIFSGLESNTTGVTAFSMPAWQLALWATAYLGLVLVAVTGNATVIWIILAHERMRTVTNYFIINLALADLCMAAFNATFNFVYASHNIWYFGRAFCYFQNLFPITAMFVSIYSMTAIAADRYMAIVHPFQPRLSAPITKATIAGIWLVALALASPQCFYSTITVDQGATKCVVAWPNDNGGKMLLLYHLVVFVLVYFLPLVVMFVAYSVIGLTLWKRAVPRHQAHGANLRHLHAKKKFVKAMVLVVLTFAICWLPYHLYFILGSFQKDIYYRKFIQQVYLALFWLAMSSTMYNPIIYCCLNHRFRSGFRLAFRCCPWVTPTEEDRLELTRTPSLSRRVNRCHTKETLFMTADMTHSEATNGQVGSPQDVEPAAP

Assay [2] has as its target Substance-P receptor (Homo sapiens, UniProt P25103).
Assay [3] addresses T2, Substance-K receptor (Homo sapiens, UniProt P21452).
T2 sequence (P21452 whole entry): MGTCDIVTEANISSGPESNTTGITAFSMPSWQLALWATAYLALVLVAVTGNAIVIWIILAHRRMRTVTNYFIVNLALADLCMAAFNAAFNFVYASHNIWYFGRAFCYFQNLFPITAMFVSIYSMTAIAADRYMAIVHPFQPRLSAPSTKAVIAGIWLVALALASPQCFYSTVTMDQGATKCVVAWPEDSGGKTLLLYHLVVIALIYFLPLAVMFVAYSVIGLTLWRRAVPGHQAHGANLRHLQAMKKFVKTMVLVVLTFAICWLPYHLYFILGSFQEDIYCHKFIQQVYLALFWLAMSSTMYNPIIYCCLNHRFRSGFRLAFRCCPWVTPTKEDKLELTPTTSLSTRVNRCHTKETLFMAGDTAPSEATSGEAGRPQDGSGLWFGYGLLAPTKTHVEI

Assay [4] addresses Substance-P receptor (Cavia porcellus, UniProt P30547).
The target of assay [5] is T3, Substance-K receptor (Bos taurus, UniProt P05363).
T3 sequence (P05363 whole entry): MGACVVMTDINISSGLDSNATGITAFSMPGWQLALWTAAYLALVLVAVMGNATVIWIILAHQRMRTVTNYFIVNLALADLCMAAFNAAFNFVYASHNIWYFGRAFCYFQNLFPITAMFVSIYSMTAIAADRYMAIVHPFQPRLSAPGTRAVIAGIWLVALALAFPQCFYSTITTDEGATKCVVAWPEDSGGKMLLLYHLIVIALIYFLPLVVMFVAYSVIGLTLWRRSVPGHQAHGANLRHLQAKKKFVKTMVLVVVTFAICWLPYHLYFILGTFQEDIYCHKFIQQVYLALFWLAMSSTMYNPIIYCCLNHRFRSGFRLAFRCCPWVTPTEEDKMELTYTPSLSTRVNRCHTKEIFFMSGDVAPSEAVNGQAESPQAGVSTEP

Another assay addresses T4, Neuromedin-K receptor (Cavia porcellus, UniProt P30098).
T4 sequence (P30098 whole entry): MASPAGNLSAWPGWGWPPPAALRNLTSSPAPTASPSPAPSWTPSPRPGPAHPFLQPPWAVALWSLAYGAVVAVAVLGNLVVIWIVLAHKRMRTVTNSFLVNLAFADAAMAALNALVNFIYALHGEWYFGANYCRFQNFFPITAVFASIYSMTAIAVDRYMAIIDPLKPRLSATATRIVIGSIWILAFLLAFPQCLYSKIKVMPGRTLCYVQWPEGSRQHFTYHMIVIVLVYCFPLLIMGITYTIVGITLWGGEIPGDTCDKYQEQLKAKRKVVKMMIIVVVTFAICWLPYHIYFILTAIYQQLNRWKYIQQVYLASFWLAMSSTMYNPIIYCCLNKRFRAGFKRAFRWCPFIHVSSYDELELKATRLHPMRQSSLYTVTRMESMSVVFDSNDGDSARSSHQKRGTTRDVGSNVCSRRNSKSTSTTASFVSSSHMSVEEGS

Assay [6] concerns the target Substance-P receptor (Rattus norvegicus, UniProt P14600).

Molecules are shown by their SMILES. Starred links: 1 amine or outer side, 2 acyl side, 3 side chain; linkers in the order of their positions; H or OH if unused. Positions of bridges follow the written chain, without caps; N, C: chain ends. Non-standard residues stand in square brackets, D forms with d. Residues, ends and D or L forms follow the SMILES beside them. *: point of attachment. X2 = CN(C(=Cc1ccc(O)cc1)C(=O)[*:2])[*:1]; X1 = CCCCCc1ccccc1CCC(=O)* Where only a bound is given, the exact number is not on record here.

Sequence of Substance-P receptor (Rattus norvegicus, UniProt P14600) (P14600 whole entry): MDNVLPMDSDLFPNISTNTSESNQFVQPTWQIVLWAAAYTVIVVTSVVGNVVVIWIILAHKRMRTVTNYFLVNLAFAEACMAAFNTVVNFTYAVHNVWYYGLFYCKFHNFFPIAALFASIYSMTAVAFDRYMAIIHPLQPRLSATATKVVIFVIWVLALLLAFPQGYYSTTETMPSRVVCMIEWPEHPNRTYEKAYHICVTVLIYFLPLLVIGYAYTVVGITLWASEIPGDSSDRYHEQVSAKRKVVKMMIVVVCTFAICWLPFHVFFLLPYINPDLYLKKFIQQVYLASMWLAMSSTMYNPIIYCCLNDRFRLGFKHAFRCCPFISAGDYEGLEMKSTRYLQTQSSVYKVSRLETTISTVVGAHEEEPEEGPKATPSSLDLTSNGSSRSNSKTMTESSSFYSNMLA
Sequence of Substance-P receptor (Homo sapiens, UniProt P25103) (P25103 whole entry): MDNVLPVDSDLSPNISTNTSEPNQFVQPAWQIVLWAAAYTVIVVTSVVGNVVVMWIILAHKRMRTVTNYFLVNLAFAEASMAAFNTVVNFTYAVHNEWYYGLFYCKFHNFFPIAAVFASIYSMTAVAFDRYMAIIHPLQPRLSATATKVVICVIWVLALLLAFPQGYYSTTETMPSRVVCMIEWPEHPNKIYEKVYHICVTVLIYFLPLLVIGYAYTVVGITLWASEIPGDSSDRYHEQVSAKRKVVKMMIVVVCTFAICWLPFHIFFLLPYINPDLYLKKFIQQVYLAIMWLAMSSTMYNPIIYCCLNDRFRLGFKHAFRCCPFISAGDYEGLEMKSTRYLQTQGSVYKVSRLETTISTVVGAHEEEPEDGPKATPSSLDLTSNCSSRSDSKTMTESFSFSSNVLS
Sequence of Substance-P receptor (Cavia porcellus, UniProt P30547) (P30547 whole entry): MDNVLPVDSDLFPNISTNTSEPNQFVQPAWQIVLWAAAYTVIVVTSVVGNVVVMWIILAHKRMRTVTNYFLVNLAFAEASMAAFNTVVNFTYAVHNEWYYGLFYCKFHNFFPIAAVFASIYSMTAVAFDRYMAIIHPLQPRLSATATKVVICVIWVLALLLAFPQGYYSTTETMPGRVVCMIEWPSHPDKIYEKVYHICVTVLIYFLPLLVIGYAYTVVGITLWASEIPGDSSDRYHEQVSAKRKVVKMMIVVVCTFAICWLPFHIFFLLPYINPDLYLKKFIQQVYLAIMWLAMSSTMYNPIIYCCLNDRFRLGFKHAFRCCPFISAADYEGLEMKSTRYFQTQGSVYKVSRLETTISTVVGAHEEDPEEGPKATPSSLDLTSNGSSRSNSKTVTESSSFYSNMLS

For orientation: Ki means a measure of affinity in units of concentration, obtained from inhibition or displacement. Higher therefore signals weaker binding. Regarding `CSCC[C@H](NC(=O)[C@H](CC(C)C)NC(=O)CNC(=O)[C@@H](NC(=O)[C@H](Cc1ccccc1)NC(=O)[C@H](CO)NC(=O)[C@H](CC(=O)O)NC(=O)[C@@H](NC(=O)[C@H](CCCCN)NC(=O)[C@@H](N)Cc1cnc[nH]1)[C@@H](C)O)C(C)C)C(N)=O` [Neurokinin alpha], the affinity at Substance-K receptor [1] corresponds to a Ki of 1.8 nM.
`COc1cc(C(=O)N2CC[C@@](CCN3CCC(C(N)=O)(c4ccccc4)CC3)(c3ccc(Cl)c(Cl)c3)C2)cc(OC)c1OC` [MDL 105,212A (R)-enantiomer]: the Ki amounted to 3.69 nM at Substance-P receptor [2], 7.93 nM on Substance-K receptor [3], 2.99 nM on Substance-P receptor [4] and 8.4 nM on Substance-K receptor [5].
Regarding `COc1cc(C(=O)N2CC[C@](CCN3CCC(C(N)=O)(c4ccccc4)CC3)(c3ccc(Cl)c(Cl)c3)C2)cc(OC)c1OC`, the Ki on Substance-P receptor [2] turned out to be 7.07 nM; at Substance-K receptor [3], 21 nM; on Substance-P receptor [4], 5.88 nM; at Neuromedin-K receptor, 54.3 nM.
For the compound `COc1cc(C(=O)N2CC[C@@](CCN3CCC(C(N)=O)(c4ccccc4)CC3)(c3ccc(Cl)c(Cl)c3)C2)cc(OC)c1OC`, the inhibitory constant (Ki) is 3.11 nM on Substance-P receptor [2]; 408 nM on Substance-P receptor [6]; 8.4 nM at Substance-K receptor [3]; 2.12 nM on Substance-P receptor [4]; 6.98 nM on Substance-K receptor [1]; 21 nM at Neuromedin-K receptor. Further, the Ki at Substance-K receptor [5] stood at 8.49 nM.
As for `COc1cc(C(=O)N2CC[C@](CCN3CCC(C(N)=O)(c4ccccc4)CC3)(c3ccc(Cl)c(Cl)c3)C2)cc(OC)c1OC` [1-{2-[(R)-3-(3,4-Dichloro-phenyl)-1-(3,4,5-trimethoxy-benzoyl)-pyrrolidin-3-yl]-ethyl}-4-phenyl-piperidine-4-carboxylic acid amide], the Ki on Substance-P receptor [2] amounted to 160 nM; on Substance-P receptor [6], 2200 nM; on Substance-K receptor [3], 760 nM; on Substance-P receptor [4], 183 nM; on Substance-K receptor [1], 711 nM; on Neuromedin-K receptor it was 2310 nM. The compound further yielded a Ki at Substance-K receptor [5] of 207 nM.
For `CC(=O)NC1(c2ccccc2)CCN(CCC(CN(C)C(=O)c2ccccc2)c2ccc(Cl)c(Cl)c2)CC1` (stereo not given) [SR 48968], the Ki at Substance-P receptor [2] amounted to 593 nM; on Substance-K receptor [3] it was 0.44 nM; at Substance-P receptor [4], 217 nM; at Substance-K receptor [1], 7.32 nM; on Neuromedin-K receptor, 208 nM; at Substance-K receptor [5], 0.71 nM.
For `COc1ccccc1CN[C@H]1C2CCN(CC2)[C@H]1C(c1ccccc1)c1ccccc1`, the Ki at Substance-K receptor [3] and on Neuromedin-K receptor was above 10000 nM in each case.
For `CCCCCc1ccccc1CCC(=O)NC1C(=O)N(C)C(=Cc2ccc(O)cc2)C(=O)NC(CC(C)C)C(=O)NC(Cc2ccccc2)C(=O)NC(C(C)O)C(=O)NC(CC(N)=O)C(=O)NC(CO)C(=O)OC1C` (stereo not given) [CAS_6437864] (X1-T[X2]LFTNS; ester 1-C; configuration not given here), the Ki on Substance-P receptor [2] was 215 nM; at Substance-P receptor [6], 228 nM; on Substance-K receptor [3], 434 nM; at Substance-P receptor [4], 98.7 nM; at Substance-K receptor [1], 3590 nM; at Neuromedin-K receptor, 3550 nM. Besides, the inhibition constant (Ki) on Substance-K receptor [5] was 311 nM.
`CN(Cc1ccccc1)C(=O)[C@@H](Cc1ccc2ccccc2c1)NC(=O)C1C[C@@H](O)CN1C(=O)c1cn(C)c2ccccc12` (stereo not given in full) [FK 888]: the Ki on Substance-P receptor [2] stood at 1.49 nM; on Substance-P receptor [6], 2070 nM; on Substance-K receptor [3], 1520 nM; on Substance-P receptor [4], 3.13 nM; on Neuromedin-K receptor, 5620 nM.
With `COc1ccccc1CC(=N)N1C[C@@H]2C(=O)CCC(c3ccccc3)(c3ccccc3)[C@@H]2C1` [RP-67580], the Ki was 8.29 nM on Substance-P receptor [6] and 36 nM on Substance-P receptor [4].
